Test results: patent US20230256190A1, “Methods Of Administering High Concentrations Of Nitric Oxide” (Mallinckrodt Hospital Products IP Unlimited Company, priority 2012, published 2023)

What was measured:
healthy subjects [1] = assay: Multiple-dose, single-blind, placebo-controlled tolerance study of pulsed nitric oxide: adverse events; format: in vivo, human; conditions: for Total % with any AE: 72 h pulsed inhalation
Protocol: (§1) A multiple-dose, single-blind, placebo-controlled, tolerance study of pulsed volumes of nitric oxide was completed using healthy subjects. An objective of the study was to determine safe dosing limits of inhaled nitric oxide delivered via a pulse system at cylinder concentrations of 100, 400, and 800 ppm and gas volumes ranging from 4 to 60 mL/breath at dose rates ranging from 17 to 166 μg of NO/sec. Yet another objective of the study was to determine the safety profile, including adverse events (AEs), vital signs and laboratory parameters.
Six subjects were assigned to each cohort (5 NO, 1 placebo) in a randomized, single-blind fashion. All subjects received 72 hours of continuous inhalation. A total of 22 cohorts were evaluated, with NO doses ranging from 125 to 1500 nmol/breath at delivery concentrations of 100, 400, or 800 ppm and varying volumes (4 to 60 mL per breath) in a matrix design, as shown in Table 1. Vital signs and safety laboratory were evaluated. Blood samples for determination of methemoglobin (MetHb) in venous blood, were collected for 72 hours at selected time points.
(§2) Primary safety evaluations included: (1) qualitative assessment of local nasal tolerability via a scoring system (0 to 3); and (2) formation of MetHb (compared with a standard of 7%) following varying concentrations and volumes of pulsed doses of NO. Safety evaluations included assessments of adverse events (AEs), medical history, physical examinations, vital signs, electrocardiograms (ECGs) and laboratory assessments at baseline and during the study period.
(§3) All evaluations were performed on the ‘Safety’ population, defined as all subjects who were enrolled and treated with any amount of study drug. Descriptive statistics included mean, standard deviation (SD), range, median, CV %, geometric mean and geometric CV %.
(§4) For analysis purposes, cohorts that received the same dose of NO but different cylinder concentrations and volumes were pooled, thereby creating 15 dose levels (n=14 active NO and 1 placebo, from all dose groups combined). These 15 dose levels were grouped into 4 dose analysis groups: placebo, low-dose NO (1-500 nmol/breath), mid-dose NO (501-1000 nmol/breath), and high-dose NO (1001-1500 nmol/breath).

healthy subjects [2] = assay: Local nasal tolerability scoring (0 to 3) during 72 hours of pulsed nitric oxide inhalation; format: in vivo, human; conditions: for Local tolerability Mean Score / Percent of Subjects Experiencing Nasal Irritation: 72 hours
Protocol: as §1
Six subjects were assigned to each cohort (5 NO, 1 placebo) in a randomized, single-blind fashion. […] A total of 22 cohorts were evaluated, with NO doses ranging from 125 to 1500 nmol/breath at delivery concentrations of 100, 400, or 800 ppm and varying volumes (4 to 60 mL per breath) in a matrix design, as shown in Table 1. Vital signs and safety laboratory were evaluated. […]
as §2, §3, §4
For analysis purposes, cohorts that received the same dose rate of administration of NO but different cylinder concentrations, doses and volumes were pooled, thereby creating 6 dose rate of administration levels (n=5 active NO and 1 placebo, from all rate of administration groups combined). The dose rate of administration of NO was calculated as the product of the flow rate of NO and the cylinder NO concentration.

[3] = NO 501-1000 nmol/breath (N = 45)
[4] = NO 1001-1500 nmol/breath (N = 15)

[N]=O [NO, Nitric oxide]
Back pain (% of subjects) (healthy subjects [1]; NO 1-500 nmol/breath (N = 50)): 6.0%
Headache (% of subjects) (healthy subjects [1]; NO 1-500 nmol/breath (N = 50)): 8.0%
Nausea (% of subjects) (healthy subjects [1]; NO 1-500 nmol/breath (N = 50)): 2.0%
Total % with any AE (healthy subjects [1]; NO 1-500 nmol/breath (N = 50)): 28.0%
Back pain (% of subjects) (healthy subjects [1]; [3]): 4.4%
Headache (% of subjects) (healthy subjects [1]; [3]): 4.4%
Nausea (% of subjects) (healthy subjects [1]; [3]): 4.4%
Total % with any AE (healthy subjects [1]; [3]): 33.3%
Back pain (% of subjects) (healthy subjects [1]; [4]): 0.0%
Headache (% of subjects) (healthy subjects [1]; [4]): 20.0%
Nausea (% of subjects) (healthy subjects [1]; [4]): 6.7%
Total % with any AE (healthy subjects [1]; [4]): 53.3%
Overall incidence of AEs (healthy subjects [1]; across dose, cylinder concentration and volume cohorts): only dose related
Subjects withdrawn due to chest discomfort, decreased O2 saturation, and dyspnea (healthy subjects [1]; high-dose NO group (1001-1500 nmol/breath), one subject): 6.7%
Local tolerability Mean Score (healthy subjects [2]; cylinder concentration 100 ppm): 0.10
Local tolerability Mean Score (healthy subjects [2]; cylinder concentration 400 ppm): 0.09
Local tolerability Mean Score (healthy subjects [2]; cylinder concentration 800 ppm): 0.33
Local tolerability Mean Score (healthy subjects [2]; dose group 125 nmol/breath, score 0 to 3): 0.07
Local tolerability Mean Score (healthy subjects [2]; dose group 250 nmol/breath, score 0 to 3): 0.00
Local tolerability Mean Score (healthy subjects [2]; dose group 340 nmol/breath, score 0 to 3): 0.10
Local tolerability Mean Score (healthy subjects [2]; dose group 420 nmol/breath, score 0 to 3): 0.00
Local tolerability Mean Score (healthy subjects [2]; dose group 500 nmol/breath, score 0 to 3): 0.10
Local tolerability Mean Score (healthy subjects [2]; dose group 585 nmol/breath, score 0 to 3): 0.40
Local tolerability Mean Score (healthy subjects [2]; dose group 670 nmol/breath, score 0 to 3): 0.00
Local tolerability Mean Score (healthy subjects [2]; dose group 750 nmol/breath, score 0 to 3): 0.00
Local tolerability Mean Score (healthy subjects [2]; dose group 840 nmol/breath, score 0 to 3): 0.60
Local tolerability Mean Score (healthy subjects [2]; dose group 920 nmol/breath, score 0 to 3): 0.00
Local tolerability Mean Score (healthy subjects [2]; dose group 1000 nmol/breath, score 0 to 3): 0.33
Local tolerability Mean Score (healthy subjects [2]; dose group 1160 nmol/breath, score 0 to 3): 0.40
Local tolerability Mean Score (healthy subjects [2]; dose group 1340 nmol/breath, score 0 to 3): 0.20
Local tolerability Mean Score (healthy subjects [2]; dose group 1500 nmol/breath, score 0 to 3): 0.75
Percent of Subjects Experiencing Nasal Irritation (healthy subjects [2]; dosing rate 17 μg NO/sec): 0%
Percent of Subjects Experiencing Nasal Irritation (healthy subjects [2]; dosing rate 21 μg NO/sec): 10.0%
Percent of Subjects Experiencing Nasal Irritation (healthy subjects [2]; dosing rate 33 μg NO/sec): 10%
Percent of Subjects Experiencing Nasal Irritation (healthy subjects [2]; dosing rate 83 μg NO/sec): 10%
Percent of Subjects Experiencing Nasal Irritation (healthy subjects [2]; dosing rate 167 μg NO/sec): 36.4%
Local tolerability Mean Score (healthy subjects [2]; pulse volume 4 mL/pulse): 0.00
Local tolerability Mean Score (healthy subjects [2]; pulse volume 8 mL/pulse): 0.00
Local tolerability Mean Score (healthy subjects [2]; pulse volume 10 mL/pulse): 0.20
Local tolerability Mean Score (healthy subjects [2]; pulse volume 15 mL/pulse): 0.10
Local tolerability Mean Score (healthy subjects [2]; pulse volume 20 mL/pulse): 0.00
Local tolerability Mean Score (healthy subjects [2]; pulse volume 25 mL/pulse): 0.60
Local tolerability Mean Score (healthy subjects [2]; pulse volume 30 mL/pulse): 0.07
Local tolerability Mean Score (healthy subjects [2]; pulse volume 35 mL/pulse): 0.40
Local tolerability Mean Score (healthy subjects [2]; pulse volume 40 mL/pulse): 0.10
Local tolerability Mean Score (healthy subjects [2]; pulse volume 45 mL/pulse): 0.33
Local tolerability Mean Score (healthy subjects [2]; pulse volume 50 mL/pulse): 0.00
Local tolerability Mean Score (healthy subjects [2]; pulse volume 55 mL/pulse): 0.00
Local tolerability Mean Score (healthy subjects [2]; pulse volume 60 mL/pulse): 0.30
Nasal irritation (healthy subjects [2]; doses less than 420 nmol/breath (about 0.4 mg/kg/hr), 48 hours of continuous administration): no evidence of nasal irritation
Nasal tolerability compared with placebo (healthy subjects [2]; doses less than 420 nmol/breath, at 72 hours): no different than for placebo
Subjects with nasal redness (healthy subjects [2]; doses less than 420 nmol/breath, at 72 hours, placebo 3/18): 2/18
Incidence of nasal irritation (healthy subjects [2]; dosing rate of 166 μg g/sec, including a case of nasal ulceration): higher incidence of nasal irritation
Nasal tolerability compared with placebo (healthy subjects [2]; dosing rates up to 166 μg/sec, 72 hours pulsed dosing): not different from placebo
